From paper PMC9152706, “Identification of the target and mode of action for the prokaryotic nucleotide excision repair inhibitor ATBC” (Bioscience Reports, 2022)

Target: T1, UvrA (Escherichia coli, UniProt P0A698)
T1 construct: full-length, C-terminal flexible linker, AviTag, TEV site and His tag; Ni-NTA purified from E. coli (BL21 delta-uvrA delta-uvrB used for expression); unlabelled; homodimer
T1 sequence (P0A698 1-940): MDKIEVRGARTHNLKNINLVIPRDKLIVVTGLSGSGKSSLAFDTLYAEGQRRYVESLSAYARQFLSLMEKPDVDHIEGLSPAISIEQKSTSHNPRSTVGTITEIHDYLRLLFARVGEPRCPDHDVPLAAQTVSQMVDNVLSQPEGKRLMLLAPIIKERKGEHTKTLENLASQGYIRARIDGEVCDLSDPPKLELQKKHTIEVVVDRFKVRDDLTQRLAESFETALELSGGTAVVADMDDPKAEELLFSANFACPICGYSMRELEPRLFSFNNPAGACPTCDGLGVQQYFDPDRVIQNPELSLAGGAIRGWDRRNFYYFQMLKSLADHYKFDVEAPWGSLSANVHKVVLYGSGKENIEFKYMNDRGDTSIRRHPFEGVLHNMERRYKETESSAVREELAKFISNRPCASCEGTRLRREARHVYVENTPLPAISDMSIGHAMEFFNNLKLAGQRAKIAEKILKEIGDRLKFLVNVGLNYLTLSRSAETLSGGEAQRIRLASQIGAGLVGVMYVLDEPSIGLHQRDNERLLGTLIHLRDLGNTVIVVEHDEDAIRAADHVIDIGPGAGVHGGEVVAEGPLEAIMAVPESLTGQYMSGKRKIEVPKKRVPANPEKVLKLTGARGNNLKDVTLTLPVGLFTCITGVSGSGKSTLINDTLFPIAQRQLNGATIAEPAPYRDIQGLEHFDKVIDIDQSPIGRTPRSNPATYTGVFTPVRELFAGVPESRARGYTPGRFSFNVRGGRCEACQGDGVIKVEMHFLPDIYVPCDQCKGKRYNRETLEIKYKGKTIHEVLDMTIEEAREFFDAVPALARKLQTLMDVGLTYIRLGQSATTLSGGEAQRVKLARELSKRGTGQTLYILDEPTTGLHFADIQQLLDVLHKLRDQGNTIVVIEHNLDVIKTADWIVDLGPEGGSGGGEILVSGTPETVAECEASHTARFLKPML
Assay: NADH-linked ATPase assay (pyruvate kinase / lactate dehydrogenase)
Format: biochemical
Conditions: 50 µM ATBC, 5 min preincubation; 1 mM ATP; 50 mM Tris-HCl pH 7.5, 50 mM KCl, 10 mM MgCl2; room temperature; poorly soluble, nominal concentration; ATPase site proposed from docking

## Nc1nnc(-c2cc3c(ccc4ccccc43)oc2=O)s1 [ATBC, 2-(5-amino-1,3,4-thiadiazol-2-yl)benzo(f)chromen-3-one]
  % reduction of kcat at 50 μM: ~ 70%
